Results published in US11952330B2, “Antibiotic ammonium compounds and methods for the treatment of bacterial infections” (priority 2019, dated 2024).

Assays:
S. aureus = assay: MIC by broth dilution, S. aureus; format: cell-based; settings: Staphylococcus aureus; Mueller-Hinton broth, overnight 37° C.; Table 1; read-out: MIC (μg/mL) S. aureus
Method: (§1) The antibacterial efficacy of the ammonium compounds was assessed. Minimum inhibitory concentrations (MICs) were determined by broth dilution method. Dilutions of each compound, ranging from 1 μg/mL to 256 μg/mL (final concentrations) were prepared in Mueller-Hinton broth. Compound dilutions were added to wells of a 96-well plate, with the concentration of the compound increasing 2-fold by row. Each well contained 5×10^5 CFU/ml of target bacterium in a total volume of 100 μl. Plates were incubated overnight at 37° C. The following day, plates were evaluated for a visual change in growth to determine the MIC. The concentration value corresponding to the first row that no longer had visible bacterial growth, as evaluated by turbidity in the wells, was recorded as the MIC. MIC values were representative of at least biological duplicates, each made up of technical triplicates. The antibacterial efficacy of ammonium compounds in the presence of human plasma was assessed. Minimum inhibitory concentrations (MICs) were determined by broth dilution method. Dilutions of each compound, ranging from 1 μg/mL to 256 μg/mL (final concentrations) were prepared in Mueller-Hinton broth. For the plasma containing samples, compound dilutions were made in Mueller-Hinton broth and supplemented with 5% (final %) human plasma (esterases). Compound dilutions were added to wells of a 96-well plate, with the concentration of the compound increasing 2-fold by row. Each well contained 5×10^5 CFU/mL of target bacterium in a total volume of 100 μL. Plates were incubated overnight at 37° C. The following day, plates were evaluated for a visual change in growth to determine the MIC. The concentration value corresponding to the first row that no longer had visible bacterial growth, as evaluated by turbidity in the wells, was recorded as the MIC. MIC values were representative of at least biological duplicates, each made up of technical triplicates.

A. baumannii = assay: MIC by broth dilution, A. baumannii; format: cell-based; settings: Acinetobacter baumannii; Mueller-Hinton broth, overnight 37° C.; Table 1; read-out: MIC (μg/mL) A. baumannii
Method: as §1

SMILES | MIC (S. aureus) | MIC (A. baumannii)
CCCCCCOc1ccccc1C(=O)Nc1ccc(C(=O)OCC[N+](CC)(CC)CCCC)cc1.[Br-] [Compound 67, N,N-Diethyl-N-(2-((4-(2-(hexyloxy)benzamido)benzoyl)oxy)ethyl)butan-1-aminium bromide] | 3 to 30 µg/mL | > 30 µg/mL
CCCCCCCOc1ccccc1C(=O)Nc1ccc(C(=O)OCC[N+](CC)(CC)CCC)cc1.[Br-] [Compound 69, N,N-Diethyl-N-(2-((4-(2-(heptyloxy)benzamido)benzoyl)oxy)ethyl)propan-1-aminium bromide] | 3 to 30 µg/mL | > 30 µg/mL
CCCCCCCOc1ccccc1C(=O)Nc1ccc(C(=O)OCC[N+](CC)(CC)CCCC)cc1.[Br-] [Compound 70, N,N-Diethyl-N-(2-((4-(2-(heptyloxy)benzamido)benzoyl)oxy)ethyl)butan-1-aminium bromide] | < 3 µg/mL | 3 to 30 µg/mL
CCCCCCCOc1ccccc1C(=O)Nc1ccc(C(=O)OCC[N+](CC)(CC)CCCCC)cc1.[Br-] [Compound 71, N,N-Diethyl-N-(2-((4-(2-(heptyloxy)benzamido)benzoyl)oxy)ethyl)pentan-1-aminium bromide] | < 3 µg/mL | 3 to 30 µg/mL
CCCCCCCOc1ccccc1C(=O)Nc1ccc(C(=O)NC2CC[N+](C)(CCC)CC2)cc1.[Br-] (stereo not shown) [Compound 73, 4-(4-(2-(Heptyloxy)benzamido)benzamido)-1-methyl-1-propylpiperidin-1-ium bromide] | 3 to 30 µg/mL | > 30 µg/mL
CCCCCCCCOc1ccccc1C(=O)Nc1ccc(C(=O)N(C)C2CC[N+](CC)(CCC)CC2)cc1.[Br-] (stereo not shown) [Compound 74, 1-Ethyl-4-(N-methyl-4-(2-(octyloxy)benzamido)benzamido)-1-propylpiperidin-1-ium bromide] | 3 to 30 µg/mL | > 30 µg/mL
CCCCCCCCOc1ccccc1C(=O)Nc1ccc(C(=O)NC2CC[N+](CCC)(CCC)CC2)cc1.[Br-] [Compound 75, 4-(4-(2-(Octyloxy)benzamido)benzamido)-1,1-dipropylpiperidin-1-ium bromide] | 3 to 30 µg/mL | > 30 µg/mL
CCCCCCCOc1ccccc1C(=O)Nc1ccc(C(=O)NC2CC[N+](CCC)(CCC)CC2)cc1.[Br-] [Compound 76, 4-(4-(2-(Heptyloxy)benzamido)benzamido)-1,1-dipropylpiperidin-1-ium bromide] | 3 to 30 µg/mL | > 30 µg/mL
CCCCCCCOc1ccccc1C(=O)Nc1ccc(C(=O)NCC[N+](C)(CC)CC)cc1.[Br-] [Compound 77, N,N-Diethyl-2-(4-(2-(heptyloxy)benzamido)benzamido)-N-methylethan-1-aminium bromide] | 3 to 30 µg/mL | > 30 µg/mL
CCCCCCCCOc1ccccc1C(=O)Nc1ccc(C(=O)NC2CC[N+](C)(CC)CC2)cc1.[Br-] (stereo not shown) [Compound 80, 1-Ethyl-1-methyl-4-(4-(2-(octyloxy)benzamido)benzamido)piperidin-1-ium bromide] | 3 to 30 µg/mL | > 30 µg/mL
CCCCCCCCOc1ccccc1C(=O)Nc1ccc(S(=O)(=O)NCC[N+](CC)(CC)CCC)cc1.[Br-] [Compound 82, N,N-Diethyl-N-(2-((4-(2-(octyloxy)benzamido)phenyl)sulfonamido)ethyl)propan-1-aminium bromide] | 3 to 30 µg/mL | 3 to 30 µg/mL
CCCCCCCOc1ccccc1C(=O)Nc1ccc(C(=O)NC2CC[N+](CC)(CCC)CC2)cc1.[Br-] (stereo not shown) [Compound 85, 1-Ethyl-4-(4-(2-(heptyloxy)benzamido)benzamido)-1-propylpiperidin-1-ium bromide] | 3 to 30 µg/mL | > 30 µg/mL
CCCCCCCCOc1ccc(F)cc1C(=O)Nc1ccc(C(=O)OCC[N+](C)(CC)CC)cc1.[Br-] [Compound 86, N,N-Diethyl-2-((4-(5-fluoro-2-(octyloxy)benzamido)benzoyl)oxy)-N-methylethan-1-aminium bromide] | < 3 µg/mL | 3 to 30 µg/mL
CCCCCCCCOc1ccccc1C(=O)Nc1ccc(C(=O)OCC[N+](C)(CC)CC)c(F)c1.[Br-] [Compound 90, N,N-Diethyl-2-((2-fluoro-4-(2-(octyloxy)benzamido)benzoyl)oxy)-N-methylethan-1-aminium bromide] | 3 to 30 µg/mL | 3 to 30 µg/mL
CCCCCCCOc1ccccc1C(=O)Nc1ccc(S(=O)(=O)NCC[N+](CC)(CC)CCCC)cc1.[Br-] [Compound 93, N,N-Diethyl-N-(2-((4-(2-(heptyloxy)benzamido)phenyl)sulfonamido)ethyl)butan-1-aminium bromide] | 3 to 30 µg/mL | > 30 µg/mL
CCCCCCOc1cc(F)ccc1C(=O)Nc1ccc(S(=O)(=O)NCC[N+](CC)(CC)CCCCC)cc1.[Br-] [Compound 94, N,N-Diethyl-N-(2-((4-(4-fluoro-2-(hexyloxy)benzamido)phenyl)sulfonamido)-ethyl)pentan-1-aminium bromide] | 3 to 30 µg/mL | 3 to 30 µg/mL
CCCC(CCC)Oc1ccccc1C(=O)Nc1ccc(C(=O)OCC[N+](C)(CC)CC)cc1.[Br-] [Compound 96, N,N-Diethyl-2-((4-(2-(heptan-4-yloxy)benzamido)benzoyl)oxy)-N-methylethan-1-aminium bromide] | 3 to 30 µg/mL | > 30 µg/mL

More lines, now with the values ahead:

MIC (S. aureus) | MIC (A. baumannii) | SMILES
3 to 30 µg/mL | > 30 µg/mL | CCCCCCOc1ccccc1C(=O)Nc1ccc(C(=O)OCC[N+](CC)(CC)CCC)cc1.[Br-] [Compound 66, N,N-Diethyl-N-(2-((4-(2-(hexyloxy)benzamido)benzoyl)oxy)ethyl)propan-1-aminium bromide]
3 to 30 µg/mL | > 30 µg/mL | CCCCCCCCOc1ccccc1C(=O)Nc1ccc(C(=O)NC2CC[N+](C)(CCC)CC2)cc1.[Br-] (stereo not shown) [Compound 72, 1-Methyl-4-(4-(2-(octyloxy)benzamido)benzamido)-1-propylpiperidin-1-ium bromide]
3 to 30 µg/mL | 3 to 30 µg/mL | CCCCCCCCOc1ccccc1C(=O)Nc1ccc(S(=O)(=O)NCC[N+](C)(CC)CC)cc1.[Br-] [Compound 78, N,N-Diethyl-N-methyl-2-((4-(2-(octyloxy)benzamido)phenyl)sulfonamido)ethan-1-aminium bromide]
3 to 30 µg/mL | > 30 µg/mL | CCCCCCCOc1ccccc1C(=O)Nc1ccc(S(=O)(=O)NCC[N+](C)(CC)CC)cc1.[Br-] [Compound 79, N,N-Diethyl-2-((4-(2-(heptyloxy)benzamido)phenyl)sulfonamido)-N-methylethan-1-aminium bromide]
> 30 µg/mL | > 30 µg/mL | CCCCCCCOc1ccccc1C(=O)Nc1ccc(C(=O)NC2CC[N+](C)(CC)CC2)cc1.[Br-] (stereo not shown) [Compound 81, 1-Ethyl-4-(4-(2-(heptyloxy)benzamido)benzamido)-1-methylpiperidin-1-ium bromide]
3 to 30 µg/mL | > 30 µg/mL | CCCCCCCOc1ccccc1C(=O)Nc1ccc(S(=O)(=O)NCC[N+](CC)(CC)CCC)cc1.[Br-] [Compound 83, N,N-Diethyl-N-(2-((4-(2-(heptyloxy)benzamido)phenyl)sulfonamido)ethyl)propan-1-aminium bromide]
3 to 30 µg/mL | > 30 µg/mL | CCCCCCCCOc1ccccc1C(=O)Nc1ccc(C(=O)NC2CC[N+](CC)(CCC)CC2)cc1.[Br-] (stereo not shown) [Compound 84, 1-Ethyl-4-(4-(2-(octyloxy)benzamido)benzamido)-1-propylpiperidin-1-ium bromide]
3 to 30 µg/mL | > 30 µg/mL | CCCCCCCCOc1cc(F)ccc1C(=O)Nc1ccc(C(=O)OCC[N+](C)(CC)CC)cc1.[Br-] [Compound 87, N,N-Diethyl-2-((4-(4-fluoro-2-(octyloxy)benzamido)benzoyl)oxy)-N-methylethan-1-aminium bromide]
3 to 30 µg/mL | > 30 µg/mL | CCCCCCCCOc1cccc(F)c1C(=O)Nc1ccc(C(=O)OCC[N+](C)(CC)CC)cc1.[Br-] [Compound 88, N,N-Diethyl-2-((4-(2-fluoro-6-(octyloxy)benzamido)benzoyl)oxy)-N-methylethan-1-aminium bromide]
3 to 30 µg/mL | > 30 µg/mL | CCCCCCCCOc1c(F)cccc1C(=O)Nc1ccc(C(=O)OCC[N+](C)(CC)CC)cc1.[Br-] [Compound 89, N,N-Diethyl-2-((4-(3-fluoro-2-(octyloxy)benzamido)benzoyl)oxy)-N-methylethan-1-aminium bromide]
3 to 30 µg/mL | > 30 µg/mL | CCCCCCCCOc1ccccc1C(=O)Nc1ccc(C(=O)OCC[N+](C)(CC)CC)cc1F.[Br-] [Compound 91, N,N-Diethyl-2-((3-fluoro-4-(2-(octyloxy)benzamido)benzoyl)oxy)-N-methylethan-1-aminium bromide]
3 to 30 µg/mL | > 30 µg/mL | CCCCCCOc1ccccc1C(=O)Nc1ccc(S(=O)(=O)NCC[N+](CC)(CC)CCCCC)cc1.[Br-] [Compound 92, N,N-Diethyl-N-(2-((4-(2-(hexyloxy)benzamido)phenyl)sulfonamido)ethyl)pentan-1-aminium bromide]
